Assays:
HNSCC specimen = assay: Fluorescence microscopy after spraying Compound 1 onto freshly frozen tissue sections; design: species or system human; details: sprayed ex vivo onto freshly frozen HNSCC sections
Source text: FIGS. 18A-18B describes fluorescence microscopy to confirm tumor-specific activation of Compound 1. […] DAPI was applied for nuclear staining (a) and Compound 1 for fluorescence visualization (b). […] RFU: relative fluorescence units.

[1] = system: breast cancer, HNSCC, prostate cancer, and ovarian cancer; assay: Phase 2 imaging of tumors 3-6 hours post dosing with multiple NIR cameras; assay type: in vivo, human
Protocol: The study also utilized data collected from different NIR cameras and from multiple sites. All patients received a single I.V. dose of Compound 1, followed by routine surgery approximately 3-6 hours after infusion of Compound 1. Pre-excision and post-excision intraoperative and backtable visualization a tumor from a breast cancer patient (101-001; UPenn; VisionSense NIR camera) dosed with Compound 1 (2 mg/kg) 6±3 hr prior to surgery and an HNSCC cancer patient (102-007; UTSW; NOVADAQ SPY Elite NIR camera) dosed with Compound 1 (3 mg/kg) 6±3 hr prior to surgery are shown in FIG. 22. In each case, white light imaging of the pre- or post-excised tumor/specimen is juxtaposed with an overlay of the fluorescence observed and the white light image, indicating the presence of the tumor. Intraoperative/in vivo imaging of prostate cancer from two patients (102-008 and 102-009; UTSW; Da Vinci Firefly NIR camera with updated software/hardware) dosed with Compound 1 (3 mg/kg) 6±3 hr prior to excision of the tumor and the imaging of wound bed after excision of the tumor are shown in FIG. 23. In each case, white light imaging of the pre-excised tumor/specimen and the surgical wound bed are juxtaposed with images of the fluorescence observed. […] A tumor from a patient (101-005) with ovarian cancer dosed with Compound 1 (3 mg/kg, 6±3 hr) was imaged in vivo pre-excision as shown in FIG. 24. A white light image juxtaposed with an overlay of the fluorescence observed and the white light image, indicating the presence of the tumor.

Substance: PEO90-140-b-P(DBA60-150-r-ICG0-3-r-AMA0-3) [Compound 1]
- Fluorescence delineation on tissue sections (HNSCC specimen): sharp delineation of fluorescence between the tumor and stromal tissue
- Intraoperative fluorescence in prostate cancer ([1]; 3 mg/kg, 6±3 hr, Da Vinci Firefly camera): fluoresced intraoperatively
- Fluorescence in the surgical bed after prostate tumor excision ([1]; 3 mg/kg, 6±3 hr, negative margins confirmed through pathology): No fluorescence was detected
- Fluorescence in BC and HNSCC tumors ([1]; 3-5 hour dose schedule timing, SPY Elite camera): verified in all visible BC and HNSCC tumors
- Ability to image tumors 3-6 hours after I.V. injection ([1]; Phase 2, breast cancer, HNSCC, prostate cancer, ovarian cancer, 2-3 mg/kg): demonstrated

From patent publication US20230025280A1, “PH RESPONSIVE COMPOSITIONS, FORMULATIONS, AND METHODS OF IMAGING A TUMOR” (ONCONANO MEDICINE, INC, priority 2019, published 2023)
